BindingDB's records for patent US20240174647 (Neuron23, 2024)

Molecular target: Leucine-rich repeat serine/threonine-protein kinase 2 (Homo sapiens, UniProt Q5S007)
Assay: Biochemical Assay
Protocol: The protocol for basic TR-FRET LanthaScreen Tb Kinase Activity Assay inhibitor studies were as follows. LanthaScreen Kinase Activity Assays (ThermoFisher/USA) to evaluate inhibitors were performed by addition of 100 nL of test compound in corresponding DMSO dilutions/5 μL of kinase/fluorescein-ERM(LRRKtide) peptide mixture, 5 μL of ATP into 384 well small volume plates. After incubation for 120 minutes at room temperature, the detection reagents containing Tb-anti-pLRRKtide antibody were added to monitor phosphrylation level of peptide. Then, after 60 min minutes incubation at room temperature plates were read in Envision. Data analysis of emission ratios was according to LanthaScreen Tb Kinase Activity Assay protocol.Kinase and assay components were adjusted to final concentrations according to the kit protocol. For LRRK2: 2 nM wt human LRRK2, catalytic site, catalytic site (ThermoFisher/USA), 400 nM peptide, 38 μM ATP in 1× Kinase Buffer A.Basic protocol for TR-FRET LanthaScreen Tb Kinase Activity Assay inhibitor studies involved two steps:Enzymatic step: Addition of 100 nL of test compound in corresponding DMSO dilutions, 5 μL of kinase/substrate mixture, 5 μL of ATP into 384 well small volume plates. Incubation for 120 minutes at room temperature.Detection step: Addition of 10 μL EDTA & antibody, read plate after 60 minutes. […]

Chain of Leucine-rich repeat serine/threonine-protein kinase 2 (Q5S007 whole entry): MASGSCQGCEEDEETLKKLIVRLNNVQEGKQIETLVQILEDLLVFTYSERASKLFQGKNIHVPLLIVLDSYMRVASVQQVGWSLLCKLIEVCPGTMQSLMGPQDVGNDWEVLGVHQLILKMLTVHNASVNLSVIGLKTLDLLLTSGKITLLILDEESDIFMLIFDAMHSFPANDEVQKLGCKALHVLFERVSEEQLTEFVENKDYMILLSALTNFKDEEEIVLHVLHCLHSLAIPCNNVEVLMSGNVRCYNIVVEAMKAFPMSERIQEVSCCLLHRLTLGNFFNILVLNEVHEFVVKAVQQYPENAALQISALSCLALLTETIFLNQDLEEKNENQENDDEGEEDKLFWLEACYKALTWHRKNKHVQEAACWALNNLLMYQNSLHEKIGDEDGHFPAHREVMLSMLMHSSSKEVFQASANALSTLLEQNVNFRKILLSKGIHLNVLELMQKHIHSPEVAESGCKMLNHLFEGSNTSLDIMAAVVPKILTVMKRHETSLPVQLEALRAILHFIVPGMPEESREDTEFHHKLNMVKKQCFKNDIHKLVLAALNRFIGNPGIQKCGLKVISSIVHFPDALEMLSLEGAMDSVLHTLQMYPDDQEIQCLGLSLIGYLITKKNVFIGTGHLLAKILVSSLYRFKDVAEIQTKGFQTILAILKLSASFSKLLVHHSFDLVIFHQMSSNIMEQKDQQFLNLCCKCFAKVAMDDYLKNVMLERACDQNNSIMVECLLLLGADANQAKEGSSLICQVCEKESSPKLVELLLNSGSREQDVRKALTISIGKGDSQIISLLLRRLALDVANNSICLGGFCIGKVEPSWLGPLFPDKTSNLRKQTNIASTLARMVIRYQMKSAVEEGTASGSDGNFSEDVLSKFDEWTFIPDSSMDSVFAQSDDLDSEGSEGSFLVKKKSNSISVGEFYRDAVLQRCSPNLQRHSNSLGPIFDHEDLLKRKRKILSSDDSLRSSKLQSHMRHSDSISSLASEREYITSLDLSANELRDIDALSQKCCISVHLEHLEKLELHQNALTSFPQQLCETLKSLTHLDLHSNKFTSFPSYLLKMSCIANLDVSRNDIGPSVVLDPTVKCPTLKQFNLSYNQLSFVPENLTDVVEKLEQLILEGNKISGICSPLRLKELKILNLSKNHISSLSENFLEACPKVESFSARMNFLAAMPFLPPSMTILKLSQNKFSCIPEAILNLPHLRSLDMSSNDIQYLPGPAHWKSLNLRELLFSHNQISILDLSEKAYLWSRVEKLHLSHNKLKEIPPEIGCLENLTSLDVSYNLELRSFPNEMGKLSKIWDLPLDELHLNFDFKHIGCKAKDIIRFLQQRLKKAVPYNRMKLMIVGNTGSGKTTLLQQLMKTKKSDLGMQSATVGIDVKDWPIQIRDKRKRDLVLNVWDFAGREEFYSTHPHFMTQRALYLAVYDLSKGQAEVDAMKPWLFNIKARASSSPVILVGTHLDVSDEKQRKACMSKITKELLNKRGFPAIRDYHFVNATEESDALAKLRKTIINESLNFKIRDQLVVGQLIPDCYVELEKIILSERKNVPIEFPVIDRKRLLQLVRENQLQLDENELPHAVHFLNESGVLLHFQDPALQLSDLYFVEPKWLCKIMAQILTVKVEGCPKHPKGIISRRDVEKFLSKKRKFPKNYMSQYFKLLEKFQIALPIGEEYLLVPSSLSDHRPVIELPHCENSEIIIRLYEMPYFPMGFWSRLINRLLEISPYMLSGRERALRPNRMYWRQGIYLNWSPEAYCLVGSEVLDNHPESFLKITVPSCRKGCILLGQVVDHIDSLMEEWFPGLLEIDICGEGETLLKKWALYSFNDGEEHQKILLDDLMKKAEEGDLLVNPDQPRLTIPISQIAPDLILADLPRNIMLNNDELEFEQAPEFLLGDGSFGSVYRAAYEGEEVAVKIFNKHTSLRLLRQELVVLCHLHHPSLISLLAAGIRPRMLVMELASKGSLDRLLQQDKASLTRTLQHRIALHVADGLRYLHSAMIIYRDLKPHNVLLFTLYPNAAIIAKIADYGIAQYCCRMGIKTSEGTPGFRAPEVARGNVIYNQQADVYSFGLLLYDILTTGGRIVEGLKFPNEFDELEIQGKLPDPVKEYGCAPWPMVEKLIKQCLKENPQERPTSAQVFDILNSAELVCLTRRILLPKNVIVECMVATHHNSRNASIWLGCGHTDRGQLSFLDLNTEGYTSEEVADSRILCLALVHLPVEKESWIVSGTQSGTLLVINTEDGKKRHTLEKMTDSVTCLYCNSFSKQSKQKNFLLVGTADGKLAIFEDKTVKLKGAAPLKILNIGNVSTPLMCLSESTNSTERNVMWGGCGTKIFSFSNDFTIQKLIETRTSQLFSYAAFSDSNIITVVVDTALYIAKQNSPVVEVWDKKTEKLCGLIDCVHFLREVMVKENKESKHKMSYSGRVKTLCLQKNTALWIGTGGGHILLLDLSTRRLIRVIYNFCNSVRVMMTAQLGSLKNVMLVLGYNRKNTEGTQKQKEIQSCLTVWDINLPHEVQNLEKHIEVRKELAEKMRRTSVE

SMILES: CNc1nc(Nc2ccc(F)c3[nH]ncc23)ncc1C(F)(F)F [US20240174647, Example 27]
- IC50: < 50 nM
